Results from PMC7144120, “Psoralen Derivatives as Inhibitors of Mycobacterium tuberculosis Proteasome” (Molecules, 2020).
“Also recorded” adds a separate entry of the source. Like-named read-outs stand apart in the source and are kept apart here. *1 amine or outer side, *2 acyl side, *3 side chain or, on linkers, in order; H or OH if unused. Where a SMILES comes first, the peptide text is derived from it. The star is where a group is joined. AMC = Cc1cc(=O)oc2cc(N*)ccc12; Suc = O=C(CCC(=O)[*:2])[*:1]

Assays:
Mtb proteasome [1] = molecular target: T1, Mtb proteasome (Mycobacterium tuberculosis, UniProt P9WHT9); experiment: biochemical; assay type: biochemical; conditions: for IC50: 50 µM Suc-LLVY-AMC, 30 min preincubation, 37 °C, triplicate, read-out: IC50 against the Mtb proteasome; for Hill Coefficient: from IC50 curve, Mtb proteasome
T1 construct: made in house

Mtb proteasome [2] = molecular target: T1, Mtb proteasome; experiment: Determination of Ki and type of inhibition (varied substrate concentration, GraphPad Prism model fit); assay type: biochemical; conditions: for Ki: best scoring inhibition model; for Type of Inhibition: best ranking model (mixed, competitive, noncompetitive, uncompetitive)
Procedure: The concentrations of 11, 13 and 15 were 0, 0.56, 0.81, 1.15, 1.65, 2.35, 4.80, 9.80 and 20 µM. Further, the concentrations for compound 8 were 0, 1.65, 2.35, 4.80, 9.80 µM and for bortezomib 0, 0.28, 0.40, 0.58, 0.82, 1.18, 2.40, 4.90 and 10 µM. All experiments were performed in triplicate. The resulting data were analyzed using the GraphPad Prism 6 software and were fitted to the software provided models for competitive, noncompetitive, uncompetitive and mixed type enzyme inhibition. The mode of inhibition and Ki values were chosen from the best ranking model, as determined by the software. Representative graphs (Michaelis-Menten, Dixon and Lineweaver-Burk plots) depicting the data fit for the best ranking model of inhibition for all compounds are shown in the Supplementary data (Figures S2–S19).

Mtb proteasome [3] = molecular target: T1, Mtb proteasome; assay type: biochemical; conditions: for Reversibility of inhibition: Mtb proteasome, 100-fold dilution after preincubation; for Reversibility of inhibition at lower concentrations: concentrations ≤ IC50
ß5i of IP = conditions: cited from earlier work; for IC50: read-out: IC50 against ß5i of IP; for RA at 10 µM against ß5i of IP: residual activity of β5i in the presence of 10 μM compound
Mtb proteasome [4] = molecular target: T1, Mtb proteasome; experiment: Determination of kinact/Ki values for PR-957; assay type: biochemical; conditions: 50 µM Suc-LLVY-AMC, 37 °C
Procedure: The kinetic assays were conducted as previously described in Enzymatic assays. Briefly, 7.8 μL of the Mtb proteasome (final concentration of 7 nM) in 20 mM HEPES buffer, pH = 7.5 with 0.5 mM EDTA was added to 0.2 μL of the compound solution at 100x final concentration in DMSO. The concentrations of PR-957 used were 0, 1.15, 1.65, 2.35, 4.80, 9.80 and 20 µM. The enzymatic reaction was initiated by the addition of 2 μL Suc-LLVY-AMC (final concentration of 50 μM) and the reaction progress was determined on a BioTek Synergy HT microplate reader, by monitoring fluorescence at 460 nm (λex = 360 nm) for 90 min at 37 °C. Values of kobs were derived from the fit of the data to the equation P = (vi/kobs)x [1 − exp(−kobs·t)] in GraphPadPrism. The data obtained were afterwards plotted against inhibitor concentration, to obtain kinact/Ki by fitting to the equation […]. The representative plots are presented in Supplementary data (Figure S33–S36).

Mtb proteasome [5] = molecular target: T1, Mtb proteasome; parameters: method as in PMID 16468985; conditions: substrate of Mtb proteasome; read-out: Km (literature value); cited from earlier work
[6] = tested on: Cc1cc(=O)oc2cc(NC(=O)[C@H](Cc3ccc(O)cc3)NC(=O)[C@@H](NC(=O)[C@H](CC(C)C)NC(=O)[C@H](CC(C)C)NC(=O)CCC(=O)O)C(C)C)ccc12; experiment: purified protein, by the assay type; conditions: other: substrate of Mtb proteasome, 10 nM enzyme
Procedure: Additionally, the Km of the substrate Suc-LLVY-AMC was calculated based on the initial velocity of the enzymatic reaction using 10 nM Mtb proteasome at various concentration of the substrate (12.5, 25, 50, 100, 250, 500 µM).

T1 sequence (P9WHT9 whole entry, looked up): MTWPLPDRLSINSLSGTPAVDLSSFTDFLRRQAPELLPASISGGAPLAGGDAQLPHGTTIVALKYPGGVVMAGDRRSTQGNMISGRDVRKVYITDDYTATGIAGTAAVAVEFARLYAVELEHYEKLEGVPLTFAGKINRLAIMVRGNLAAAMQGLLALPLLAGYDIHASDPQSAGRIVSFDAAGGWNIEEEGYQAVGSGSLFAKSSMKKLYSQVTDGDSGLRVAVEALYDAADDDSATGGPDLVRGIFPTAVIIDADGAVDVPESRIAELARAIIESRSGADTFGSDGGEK

Compound	IC50 (Mtb proteasome [1])	Hill Coefficient (Mtb proteasome [1])	α (mixed inhibition model) (Mtb proteasome [2])	Ki (Mtb proteasome [2]; Ki)	Type of Inhibition (Mtb proteasome [2])	Reversibility of inhibition (Mtb proteasome [3])	IC50 (ß5i of IP)	RA at 100 µM against Mtb (Mtb proteasome [1])	other results
CC(C)C[C@H](NC(=O)[C@H](Cc1ccccc1)NC(=O)c1cnccn1)B(O)O [Bortezomib, reference compound]	110 ± 30 nM	0.76	0.85	133 nM	Mixed inhibition	(Slow) reversible inhibition	4 nM		Type of Inhibition (Mtb proteasome [2]; listed as bortezomib): mixed type of inhibition; proteasome activity retained (Mtb proteasome [3]; 5 × IC50 concentration, 0-, 15-, 30- or 60-min preincubation at 25 °C): approximately 55%; Reversibility of inhibition (Mtb proteasome [3]; listed as bortezomib): “slow/partially” reversible; loss of enzyme activity compared to the DMSO control (Mtb proteasome [3]; concentrations equal or higher than IC50, longer preincubation time): ≤ 45%
Cc1c(CCC(=O)NCC#N)c(=O)oc2cc3occ(C(C)(C)C)c3cc12 [Compound 8]	3700 ± 1500 nM	1.05	0.19	5600 nM	mixed type of inhibition	reversible inhibitors; also recorded: Reversible inhibition			RA at 10 µM against ß5i of IP (ß5i of IP): 100%
Cc1c(CCC(=O)ON2C(=O)CCC2=O)c(=O)oc2cc3occ(-c4ccco4)c3cc12 [Compound 11]	8800 ± 1000 nM	0.90	6.67	4200 nM	mixed type of inhibition	partially reversible inhibition; also recorded: (Partially) reversible inhibition	940 nM		Reversibility of inhibition at lower concentrations (Mtb proteasome [3]): reversible inhibition
Cc1cc(-c2coc3cc4oc(=O)c(CC(=O)ON5C(=O)CCC5=O)c(C)c4cc23)c(C)s1 [Compound 13]	3200 ± 300 nM	0.90		1100 nM	mixed type of inhibition	partially reversible inhibition; also recorded: (Partially) reversible inhibition	4400 nM		Reversibility of inhibition at lower concentrations (Mtb proteasome [3]): reversible inhibition
Cc1c(CCC=O)c(=O)oc2cc3c(cc12)C(c1ccccc1)CO3 (centres unmarked) [Compound 15]	5800 ± 2100 nM	0.55	0.22		mixed type of inhibition	reversible inhibitors; also recorded: Reversible inhibition			Ki (Mtb proteasome [2]; read-out: Ki): 14900 nM
C=CC(=O)Nc1c(C)c2cc3c(-c4ccccc4)coc3cc2oc1=O [Compound 86]							20500 ± 1360 nM	95%	
C/C=C/C(=O)Nc1c(C)c2cc3c(-c4ccccc4)coc3cc2oc1=O [Compound 87]								93%	RA at 10 µM against ß5i of IP (ß5i of IP): 102%
Cc1c(-c2nsc(=O)o2)c(=O)oc2cc3occ(-c4ccccc4)c3cc12 [Compound 88]							13 ± 4 nM	84%	
Cc1c(Cc2nsc(=O)o2)c(=O)oc2cc3occ(-c4ccccc4)c3cc12 [Compound 89]							120 ± 50 nM	65%	
Cc1c(CCc2nsc(=O)o2)c(=O)oc2cc3occ(-c4ccccc4)c3cc12 [Compound 90]							200 ± 40 nM	69%	
COc1ccc(C[C@H](NC(=O)[C@H](C)NC(=O)CN2CCOCC2)C(=O)N[C@@H](Cc2ccccc2)C(=O)[C@@]2(C)CO2)cc1 [PR-957, reference compound]	2200 ± 1000 nM	0.91			Noncompetitive inhibition	irreversibly inhibited; also recorded: Irreversible inhibition	15 nM		Ki (Mtb proteasome [2]; read-out: Ki): 5200 nM; recovery of proteasome activity (Mtb proteasome [3]; concentration equal or higher than IC50): no significant recovery of proteasome activity; also recorded: completely inhibited the enzyme; kinact/KI (Mtb proteasome [4]): 96 M⁻¹ s⁻¹
Cc1cc(=O)oc2cc(NC(=O)[C@H](Cc3ccc(O)cc3)NC(=O)[C@@H](NC(=O)[C@H](CC(C)C)NC(=O)[C@H](CC(C)C)NC(=O)CCC(=O)O)C(C)C)ccc12 [Suc-LLVY-AMC] (Suc-LLVY-{AMC})									Km (Mtb proteasome [5]): 56 ± 15 µM
Mtb proteasome (Mycobacterium tuberculosis H37Rv)									Km [6]: ^aKi determined with GraphPad Prism by fitting the data to several inhibition models (mixed, competitive, noncompetitive, uncompetitive). The best scoring model was further examined by creating Dixon, Lineweaver-Burk and Michaelis-Menten plots. Km for Suc-LLVY-AMC is 60 ± 15 µM (see Supplementary data for details). ND, not determined. ^b The data were calculated as residual activities (RAs) of β5i in the presence of 10 μM of each compound (standard errors for RAs were < 15%). µM
